According to patent US20140303144A1, “COMPOUNDS AND METHODS OF TREATING HYPERTENSION” (Medivation Technologies, Inc., priority 2011, published 2014):

Key:
[1] = system: SH-SY5Y cells; assay: Cell viability assay (MTS reduction) against 4-Br-A23187 challenge; assay type: cell-based; settings: compound 10 nM, 4-Br-A23187 (2 μM) for 24 h; for viability at 0.01 µM: Homo sapiens, SH-SY5Y, Control = 100, Vehicle = 0, read-out: Relative Cytoprotective capacity; for Relative Cytoprotective capacity: Control = 100, Vehicle = 0
Experimental: SH-SY5Y cells cultured in DMEM/F12 media supplemented with 10% FBS were seeded in 96-well microplates at 150,000 cells/cm^2. After 24 h, cells were depleted from FBS and kept in culture for 24 h before the experiment. A stock solution was prepared by dissolving the calcium ionophore 4-Br-A23187 (Calbiochem Cat. N^o 100107) in DMSO at 25 mM. Cells were then treated with 4-Br-A23187 (2 μM), hydrogen peroxide (300 μM) or the mitochondrial toxin rotenone (25 μM) in the presence of vehicle or Compound of the Invention for 24 h. Cell death was determined by measurements of LDH release according to the Cytotoxicity Detection KitPlus (Roche, Mannheim, Germany). Cell viability was determined by measuring the capacity of cells to metabolize MTS tetrazolium (MTS) according to the Cytotoxicity Detection KitPlus (Roche, Mannheim, Germany) and MTS reduction was assessed by the CellTiter 96® AQueous One Solution Cell Proliferation assay (Promega Corporation, Madison, Wis., USA). Compounds were screened at 10 nM, using DMSO as vehicle. Assay results for the experiments with Br-A23187 were presented as the MTS reduction capacity (cell viability) of untreated cells (control), 4-Br-A23187-treated cells (vehicle), and co-incubation of Br-A23187 with Compounds of the Invention treated cells and using […] (FCCP) at 10 μM for 30 min as a control. This assay assesses the ability of the test compounds to protect against cell death that was mediated by mitochondrial dysfunction. In the assay, the calcium ionophore 4-Br-A23187 was used to challenge the cells, causing calcium levels to rise in mitochondria, which leads to depolarization and cell death. Test compounds were assessed for their ability to prevent cell death in response to challenge with 4-Br-A23187.

[2] = system: New Zealand White rabbits; settings: conscious rabbits, intravenous cumulative doses, positive control
Experimental: Four adult New Zealand White rabbits of both sexes are chosen for these studies. […] The conscious rabbits are implanted with an intravenous catheter in marginal ear vein or by centrally by intracisternal catheter interfaced to a pressure transducer connected to a suitable recorder. To unveil peripheral effects of test compound, two sets of acute studies are conducted in rabbits. In the first set of studies, test compound is dosed to rabbit intravenously for a dose-response study with cumulative doses starting 0 (Ringer's Lock solution as a vehicle), 0.1, 0.3, 1, 3.2 and 10 mg/kg where each dose is tested on a separate day. A single intravenous bolus dose at 3 mg/kg is given and a time-course study is conducted in the second set of studies. Systolic, diastolic, mean and diastolic blood pressures are recorded in both the studies. Data collections are made for 3 hours in the second set of studies. Heart rate (HR) is derived electronically using an algorithm to determine HR from pulse interval. In a separate set of studies, Clonidine (positive control) is tested where all experimental procedures including dose-regimen are identical to that of the studies with test compound.

SMILES	viability at 0.01 µM [1] [%]	Relative Cytoprotective capacity [1]	other results
Cc1ccc2c(c1)c1c3n2CC(c2ccncc2)OC(C)CC3(C)CN(C)C1 (stereo not shown) [D8]	73.1	–	–
Cc1ccc2[nH]c3c(c2c1)CN(C)CC3(C)CCc1ccc(C)nc1 (stereo not shown) [C46]	–	−0.04527	–
Clc1cccc(Cl)c1N=C1NCCN1 [Clonidine]	–	–	maximum drop of arterial blood pressure [2]: −6 mmHg
Cc1cc(C#Cc2ccc(C)nc2)c2[nH]c3c(c2c1)CN(C)CC3 [A6]	27.6	–	–
Cc1ccc2c(c1)c1c(n2C)C(C)(CCc2nc(-c3ccccc3)cs2)CN(C)C1 (stereo not shown) [C48]	–	52.14	–
Cc1cc(C#Cc2ccncc2)c2[nH]c3c(c2c1)CN(C)CC3 [A5]	28.8	–	–
Cc1ccc2c(c1)c1c3n2CC(C)(c2ccncc2)OC(C)CC3(C)CN(C)C1 (stereo not shown) [D9]	81.1	–	–
CN1CCc2[nH]c3c(NCc4ccccc4)cccc3c2C1 [A3]	35.1	–	–
Cc1ccc2c(c1)c1c3n2CC=C(c2ccc(F)cc2)CC3(C)CN(C)C1 (stereo not shown) [D5]	72.1	–	–
Cc1ccc2[nH]c3c(c2c1)CN(C)CC3(C)CCc1ccccc1 (stereo not shown) [C43]	–	9.618	–
